Article PMC8904451, “Novel chalcone-derived pyrazoles as potential therapeutic agents for the treatment of non-small cell lung cancer” (Scientific Reports, 2022)
Read-outs that look alike come from different tables or passages of the source.

How the values were obtained:
[1] = test system: A-549 cells; assay: MTT cell viability assay, A-549; format: cell-based, human; settings: 72 h, MTT, read-out: IC50 ± SD, growth inhibition, A-549
Method: All the synthesized chalcone-derived pyrazoles were evaluated for their antiproliferative activity against three human non-small cell lung cancer cell lines: A-549, H226, and H460, and a nonmalignant human embryonic kidney cell line HEK293. Cisplatin and 5-fluorouracil (5-FU) were used as a reference. […] The results of the studies are expressed as the IC50 concentration that inhibits 50% growth of cells. […] Following treatment with PCH-1, the viability of all the tested cancer cell lines decreased in a concentration-dependent manner.
The cell viability assay was performed for A-549, H226, H460, and HEK293 cells after treatment with the test compounds by using the 3-(4,5-dimethylthiazol-2-yl)-2,5-diphenyltetrazolium bromide (MTT, Sigma-Aldrich) assay. Briefly, cells were seeded onto 96-well culture plates for attachment. After 24 h, triplicate wells were treated with DMSO (1%) and the agents. […] After 2–4 h of incubation, the medium was removed, and the formazan crystals were dissolved in 100 μl of DMSO. The absorption was measured at 450 nm with an ASYS UVM340 microplate reader (Biochrom Ltd.). The 50% inhibitory concentration (IC50) was defined as the concentration that reduced the absorbance of the DMSO-treated wells by 50% of the vehicle. The IC50 values were generated from GraphPad Prism 9 software by plotting the survival curve as a function of dose from 3 independent experiments.

[2] = test system: H460 cells; assay: MTT cell viability assay, H460; format: cell-based, human; settings: 72 h, MTT, read-out: IC50 ± SD, growth inhibition, H460
Method: (§1) All the synthesized chalcone-derived pyrazoles were evaluated for their antiproliferative activity against three human non-small cell lung cancer cell lines: A-549, H226, and H460, and a nonmalignant human embryonic kidney cell line HEK293. Cisplatin and 5-fluorouracil (5-FU) were used as a reference. Cells were exposed to a range of PCH concentrations (0.5–100 µM) for 72 h and analyzed by 3-(4,5-dimethylthiazol-2-yl)-2,5-diphenyl-2H-tetrazolium bromide (MTT) assay. The results of the studies are expressed as the IC50 concentration that inhibits 50% growth of cells. […] Following treatment with PCH-1, the viability of all the tested cancer cell lines decreased in a concentration-dependent manner.
(§2) The cell viability assay was performed for A-549, H226, H460, and HEK293 cells after treatment with the test compounds by using the 3-(4,5-dimethylthiazol-2-yl)-2,5-diphenyltetrazolium bromide (MTT, Sigma-Aldrich) assay. Briefly, cells were seeded onto 96-well culture plates for attachment. After 24 h, triplicate wells were treated with DMSO (1%) and the agents. After 72 h of incubation at 37 °C in 5% CO2, the MTT solution (0.4 mg/ml) was added to each well. After 2–4 h of incubation, the medium was removed, and the formazan crystals were dissolved in 100 μl of DMSO. The absorption was measured at 450 nm with an ASYS UVM340 microplate reader (Biochrom Ltd.). The 50% inhibitory concentration (IC50) was defined as the concentration that reduced the absorbance of the DMSO-treated wells by 50% of the vehicle. The IC50 values were generated from GraphPad Prism 9 software by plotting the survival curve as a function of dose from 3 independent experiments.

[3] = test system: H226 cells; assay: MTT cell viability assay, H226; format: cell-based, human; settings: 72 h, MTT, read-out: IC50 ± SD, growth inhibition, H226
Method: as §1, §2

[4] = test system: HEK293 cells; assay: MTT cell viability assay, HEK293; format: cell-based, human; settings: nonmalignant cells, read-out: IC50 ± SD, growth inhibition, HEK293
Method: as §1, §2

[5] = test system: A-549 cells; assay: Intracellular ROS measurement (H2DCFDA, flow cytometry); format: cell-based, human; settings: A-549, all the tested time points (3, 6, 24 h)
Description: The generation of intracellular reactive oxygen species (ROS) causes an imbalance of cellular redox homeostasis, followed by damage of cellular components and cell death. Therefore, compounds with the ability to produce high levels of ROS and/or inhibit antioxidant processes are often used in anticancer therapies. In the present study, the effect of PCH-1 on ROS generation in A-549 cells was investigated by flow cytometry. As an indicator of ROS generation, the fluorescent probe 2ʹ,7ʹ-dichlorodihydrofluorescein diacetate (H2DCFDA) was used, which undergoes oxidation by ROS to form a highly fluorescent compound 2ʹ,7ʹ-dichlorofluorescein (DCF). As shown in Supplementary Fig. S6 in Supplementary Information, compound PCH-1 induced a massive amount of ROS in A-549 cells in a time-dependent manner. […] Moreover, the induction of ROS was equally high for PCH-1 and the reference compound H2O2 in all the tested time points.
For determination the ROS generation, cells were treated with IC90 of PCH-1, H2O2, or 1% DMSO for 3, 6, and 24 h. Next, a 1 µM CM-H2DCFDA (#C6827; Thermo-Fisher) probe was added to the cells in each plate 30 min before the end of the drug treatment. After incubation cells were collected by trypsinization, stained with 7-Aminoactinomycin D (7-AAD, Sigma-Aldrich), and measured. The analysis was performed with Guava EasyCyte 8 cell sorter (Merck Millipore) and FlowJo software v10. Each experiment was repeated independently three times.

[6] = test system: tubulin; assay: HTS-tubulin polymerization assay; format: biochemical; settings: 120-min kinetic reaction, absorbance 340 nm, vs vehicle
Method: To further evaluate whether the tubulin–microtubule system was the target site of PCH-1, in vitro microtubule polymerization assays were performed using the microtubule protein with Paclitaxel and Vincristine as a reference. Paclitaxel and Vincristine are antimitotic drugs that have been commonly used in conventional chemotherapy for decades. In 1979, it was shown that Paclitaxel accelerates the initiation of tubulin fiber polymerization and stabilizes the formed tubulin fibers in vitro, even in the absence of GTP or MAP in the solution[30]. Vincristine, on the other hand, binds to tubulin and inhibits its polymerization.
The assay was performed according to the manufacturer’s instructions. Briefly, compounds were diluted in DMSO to a concentration of 2 mM and then in GTB buffer to a concentration of 50 µM. In the wells of a 96-well plate (UV transparent, half surface wells) previously heated to 37 °C, 10 µl of dilutions of the test compounds were placed in duplicate. The plate was incubated for 2 min at 37 °C, and 100 µl of freshly prepared tubulin solution (4 mg/ml) in GTB-GTP buffer was then added. The plate was immediately placed in a Tecan SPARK 10 M plate reader, and the reaction kinetics were measured with the following settings: absorbance reading: 340 nm, 37 °C, interval: 45 s, number of cycles: 160.

| SMILES | IC50 ([1]; Homo sapiens, A549) | IC50 ([2]; Homo sapiens, NCI-H460) | IC50 ([3]; Homo sapiens, NCI-H226) | IC50 ([4]; Homo sapiens, HEK293, 72 h) | other results |
| --- | --- | --- | --- | --- | --- |
| O=c1[nH]cc(F)c(=O)[nH]1 [5-FU, 5-fluorouracil, reference compound] | 8.12 ± 1.01 µM | 4.08 ± 0.43 µM | 4.01 ± 0.76 µM | 11.1 ± 1.53 µM | – |
| N.N.[Cl][Pt][Cl] [Cisplatin, reference compound] | – | – | – | – | IC50 [1]: 29.01 ± 0.12 µM; IC50 [2]: 21.5 ± 1.87 µM; IC50 [3]: 17.5 ± 2.12 µM; IC50 ([4]; 72 h): 28.4 ± 1.97 µM |
| COc1cc([C@@H]2c3cc4c(cc3[C@@H](O[C@@H]3O[C@@H]5CO[C@@H](C)O[C@H]5[C@H](O)[C@H]3O)[C@H]3COC(=O)[C@H]23)OCO4)cc(OC)c1O [Etoposide, reference compound] | 0.54 ± 0.21 µM | 0.05 ± 0.01 µM | 1.03 ± 0.16 µM | 1.91 ± 0.97 µM | – |
| OO [H2O2, reference compound] | – | – | – | – | induction of ROS, reference compared with PCH-1 [5]: equally high |
| COc1cc(C2=NN(C(C)=O)C(c3ccc4c(c3)OCO4)C2)cc(OC)c1OC (centres unmarked) [PCH-2, 1-[5-(2H-1,3-benzodioxol-5-yl)-3-(3,4,5-trimethoxyphenyl)-4,5-dihydro-1H-pyrazol-1-yl]ethan-1-one] | > 100 µM | 43.8 ± 1.12 µM | 40.5 ± 3.52 µM | > 100 µM | – |
| CC(=O)N1N=C(c2ccc(C)cc2)CC1c1ccc2c(c1)OCO2 (centres unmarked) [PCH-3, 1-[5-(2H-1,3-benzodioxol-5-yl)-3-(4-methylphenyl)-4,5-dihydro-1H-pyrazol-1-yl]ethan-1-one] | > 100 µM | 24.5 ± 1.74 µM | 86.7 ± 0.92 µM | > 100 µM | – |
| COc1ccccc1C1=NN(C(C)=O)C(c2ccc3c(c2)OCO3)C1 (centres unmarked) [PCH-4, 1-[5-(2H-1,3-benzodioxol-5-yl)-3-(2-methoxyphenyl)-4,5-dihydro-1H-pyrazol-1-yl]ethan-1-one] | > 100 µM | 63.4 ± 3.34 µM | 86.7 ± 4.7 µM | > 100 µM | – |
| CC(=O)N1N=C(c2ccc3c(c2)OCO3)CC1c1ccc2c(c1)OCO2 (centres unmarked) [PCH-5, 1-[3,5-bis(2H-1,3-benzodioxol-5-yl)-4,5-dihydro-1H-pyrazol-1-yl]ethan-1-one] | 60.9 ± 4.3 µM | 38.8 ± 1.77 µM | 58 ± 2.56 µM | 47 ± 3.18 µM | – |
| CC(=O)N1N=C(c2ccc(OC(F)(F)F)cc2)CC1c1ccc2c(c1)OCO2 (centres unmarked) [PCH-6, 1-{5-(2H-1,3-benzodioxol-5-yl)-3-[4-(trifluoromethoxy)phenyl]-4,5-dihydro-1H-pyrazol-1-yl}ethan-1-one] | 21.5 ± 4.26 µM | 18.1 ± 2.13 µM | 24.4 ± 2.13 µM | 42.9 ± 1.23 µM | – |
| COc1ccc(C2=NN(C(C)=O)C(c3ccc4c(c3)CCO4)C2)cc1 (centres unmarked) [PCH-7, 1-[5-(2,3-dihydro-1-benzofuran-5-yl)-3-(4-methoxyphenyl)-4,5-dihydro-1H-pyrazol-1-yl]ethan-1-one] | > 100 µM | 30.2 ± 2.14 µM | 41.5 ± 1.12 µM | > 100 µM | – |
| COc1ccc(C2=NN(C(C)=O)C(c3cc4c(cc3OC)OCO4)C2)cc1 (centres unmarked) [PCH-8, 1-[5-(6-methoxy-2H-1,3-benzodioxol-5-yl)-3-(4-methoxyphenyl)-4,5-dihydro-1H-pyrazol-1-yl]ethan-1-one] | > 100 µM | 30.2 ± 2.14 µM | 61.1 ± 3.12 µM | > 100 µM | – |
| COc1cc2c(cc1C1=NN(C(C)=O)C(c3ccc(O)cc3)C1)SCO2 (centres unmarked) [PCH-9, 1-[5-(4-hydroxyphenyl)-3-(6-methoxy-2H-1,3-benzoxathiol-5-yl)-4,5-dihydro-1H-pyrazol-1-yl]ethan-1-one] | 79.5 ± 4.97 µM | 43.8 ± 3.97 µM | 38.4 ± 3.53 µM | 34.4 ± 2.01 µM | – |
| CC(=O)O[C@H]1C(=O)[C@@]2(C)[C@H]([C@H](OC(=O)c3ccccc3)[C@]3(O)C[C@H](OC(=O)[C@H](O)[C@@H](NC(=O)c4ccccc4)c4ccccc4)C(C)=C1C3(C)C)[C@]1(OC(C)=O)CO[C@@H]1C[C@@H]2O [Paclitaxel] | – | – | – | – | effect on tubulin polymerization kinetics [6]: accelerated the nucleation phase and increased the total mass of tubulin polymer |
| CC[C@]1(O)C[C@H]2CN(CCc3c([nH]c4ccccc34)[C@@](C(=O)OC)(c3cc4c(cc3OC)N(C=O)[C@H]3[C@@](O)(C(=O)OC)[C@H](OC(C)=O)[C@]5(CC)C=CCN6CC[C@]43[C@@H]65)C2)C1 [Vincristine, vincristine] | – | – | – | – | effect on tubulin polymerization kinetics [6]: extended the nucleation time and reduced the total mass of tubulin polymer |
